Laboratory results: patent US9738634B2, “Heterocyclic amide compound and herbicide” (SYNGENTA PARTICIPATIONS AG, priority 2013, dated 2017)

Legend:
Assay type in all cases: in vivo
barnyard grass [1] = assay: Test Example 1: weedkilling efficacy, preemergent weed treatment in the submerged state; A: barnyard grass; details: treatment dosage 252 g/ha
Method in brief: (§1)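 Alluvial soil in Wagner pots flooded to 4 cm; barnyard grass, bulrush and oval-leafed pondweed seeds sown, then 2.5-leaf rice seedlings transplanted. Same day, emulsified compound diluted in water to set g/ha dosages and applied to water surface; greenhouse 25–30 °C, effect scored by criteria after 3 weeks.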

bulrush [2] = assay: Test Example 1: weedkilling efficacy, preemergent weed treatment in the submerged state; B: bulrush; details: treatment dosage 252 g/ha
Method in brief: as §1

oval-leafed pondweed [3] = assay: Test Example 1: weedkilling efficacy, preemergent weed treatment in the submerged state; C: oval-leafed pondweed; details: treatment dosage 252 g/ha
Method in brief: as §1

transplanted rice = assay: Test Example 1: preemergent weed treatment in the submerged state, effect on crop; a: transplanted rice; details: treatment dosage 252 g/ha
Method in brief: as §1

barnyard grass [4] = assay: Test Example 2: weedkilling efficacy, growth period weed treatment in the submerged state; A: barnyard grass; details: treatment dosage 252 g/ha
Method in brief: (§2)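 First, alluvial soil in pots is flooded to 4 cm and mixed seed is sown. Next, plants grow in a greenhouse at 25 to 30° C until the 1-2 leaf stage. Then diluted emulsion is applied onto the water surface at the given g/ha rate, and injury is assessed after 3 weeks.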

bulrush [5] = assay: Test Example 2: weedkilling efficacy, growth period weed treatment in the submerged state; B: bulrush; details: treatment dosage 252 g/ha
Method in brief: as §2

oval-leafed pondweed [6] = assay: Test Example 2: weedkilling efficacy, growth period weed treatment in the submerged state; C: oval-leafed pondweed; details: treatment dosage 252 g/ha
Method in brief: as §2

crabgrass = assay: Test Example 3: weedkilling efficacy through soil treatment; D: crabgrass; details: soil treatment, treatment dosage 315 g/ha
Method in brief: (§3)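 Crop and weed responses were judged three weeks after a uniform surface spray of the water-diluted emulsion at the given g/ha rate. Seeds sat beneath about 1.5 cm of sterilized diluvial soil, and boxes stood in a greenhouse at 25 to 30° C.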

green foxtail = assay: Test Example 3: weedkilling efficacy through soil treatment; E: green foxtail; details: soil treatment, treatment dosage 315 g/ha
Method in brief: as §3

wild oat = assay: Test Example 3: weedkilling efficacy through soil treatment; G: wild oat; details: soil treatment, treatment dosage 315 g/ha
Method in brief: as §3

black-grass = assay: Test Example 3: weedkilling efficacy through soil treatment; H: black-grass; details: soil treatment, treatment dosage 315 g/ha
Method in brief: as §3

Italian ryegrass = assay: Test Example 3: weedkilling efficacy through soil treatment; I: Italian ryegrass; details: soil treatment, treatment dosage 315 g/ha
Method in brief: as §3

Indian mallow = assay: Test Example 3: weedkilling efficacy through soil treatment; K: Indian mallow; details: soil treatment, treatment dosage 315 g/ha
Method in brief: as §3

redroot pigweed = assay: Test Example 3: weedkilling efficacy through soil treatment; L: redroot pigweed; details: soil treatment, treatment dosage 315 g/ha
Method in brief: as §3

fig-leafed goosefoot = assay: Test Example 3: weedkilling efficacy through soil treatment; M: fig-leafed goosefoot; details: soil treatment, treatment dosage 315 g/ha
Method in brief: as §3

chickweed = assay: Test Example 3: weedkilling efficacy through soil treatment; N: chickweed; details: soil treatment, treatment dosage 315 g/ha
Method in brief: as §3

birds-eye speedwell = assay: Test Example 3: weedkilling efficacy through soil treatment; p: birds-eye speedwell; details: soil treatment, treatment dosage 315 g/ha
Excerpt: Weedkilling Efficacy Test Through Soil Treatment
Sterilized diluvial soil was introduced into 21 cm long, 13 cm wide, 7 cm deep plastic boxes, and seeds of crabgrass, green foxtail, barnyard grass, wild oat, black-grass, Italian ryegrass, common wind-grass, Indian mallow, redroot pigweed, fig-leafed goosefoot, chickweed, catchweed, birds-eye speedwell, corn, soybean, rice, wheat, beet and rapeseed were each spot-sown, and covered with about 1.5 cm of soil. Next, emulsions of compounds of the present invention prepared according to compounding example 2 were diluted with water to give the specified dosages, and applied uniformly onto the soil surface with a small sprayer. The plants were grown by placing the plastic boxes in a greenhouse at 25 to 30° C., and 3 weeks after the pesticide treatment the effect on each type of plant was investigated on the basis of the assessment criteria of test example 1.
A: barnyard grass, B: bulrush, C: oval-leafed pondweed, D: crabgrass, E: green foxtail, F: barnyard grass, G: wild oat, H: black-grass, I: Italian ryegrass, J: common wind-grass, K: Indian mallow, L: redroot pigweed, M: fig-leafed goosefoot, N: chickweed, O: catchweed, p: birds-eye speedwell, a: transplanted rice, b: directly sown rice, c: corn, d: soybean, e: wheat, f: beet, g: rapeseed
Further, pesticide dosage (g/ha) indicates the concentration regulated such that treatment was with only the stated number of grams (g), when calculated per hectare (ha).

directly sown rice = assay: Test Example 3: soil treatment, effect on crop; b: directly sown rice; details: soil treatment, treatment dosage 315 g/ha
Method in brief: as §3

corn = assay: Test Example 3: soil treatment, effect on crop; c: corn; details: soil treatment, treatment dosage 315 g/ha
Method in brief: as §3

soybean = assay: Test Example 3: soil treatment, effect on crop; d: soybean; details: soil treatment, treatment dosage 315 g/ha
Method in brief: as §3

wheat = assay: Test Example 3: soil treatment, effect on crop; e: wheat; details: soil treatment, treatment dosage 315 g/ha
Method in brief: as §3

beet = assay: Test Example 3: soil treatment, effect on crop; f: beet; details: soil treatment, treatment dosage 315 g/ha
Method in brief: as §3

Structure (SMILES)	A: barnyard grass, weed kill grade (barnyard grass [1])	B: bulrush, weed kill grade (bulrush [2])	C: oval-leafed pondweed, weed kill grade (oval-leafed pondweed [3])	a: transplanted rice, effect on crop grade (transplanted rice)	A (barnyard grass) weedkilling efficacy grade (barnyard grass [4])	B (bulrush) weedkilling efficacy grade (bulrush [5])	C (oval-leafed pondweed) weedkilling efficacy grade (oval-leafed pondweed [6])	D: crabgrass, weedkilling efficacy grade (crabgrass)	E: green foxtail, weedkilling efficacy grade (green foxtail)	G: wild oat, weedkilling efficacy grade (wild oat)	H: black-grass, weedkilling efficacy grade (black-grass)	I: Italian ryegrass, weedkilling efficacy grade (Italian ryegrass)	K: Indian mallow, weedkilling efficacy grade (Indian mallow)	L: redroot pigweed, weedkilling efficacy grade (redroot pigweed)	M: fig-leafed goosefoot, weedkilling efficacy grade (fig-leafed goosefoot)	N: chickweed, weedkilling efficacy grade (chickweed)	P: birds-eye speedwell, weedkilling efficacy grade (birds-eye speedwell)	b: directly sown rice, effect on crop grade (directly sown rice)	c: corn, effect on crop grade (corn)	d: soybean, effect on crop grade (soybean)	also measured
CC(C)(C(=O)Nc1cccc(F)n1)N1COCN(c2ccccc2)C1=O [A-2-05]	5 (weed kill ratio 90% or more, (practically complete withering))	5 (weed kill ratio 90% or more, (practically complete withering))	5 (weed kill ratio 90% or more, (practically complete withering))	3 (weed kill ratio 40% or more, less than 70%)	4 (weed kill ratio 70% or more, less than 90%)	5 (weed kill ratio 90% or more, (practically complete withering))	4 (weed kill ratio 70% or more, less than 90%)	5 (weed kill ratio 90% or more, (practically complete withering))	5 (weed kill ratio 90% or more, (practically complete withering))	5 (weed kill ratio 90% or more, (practically complete withering))	5 (weed kill ratio 90% or more, (practically complete withering))	5 (weed kill ratio 90% or more, (practically complete withering))	3 (weed kill ratio 40% or more, less than 70%)	5 (weed kill ratio 90% or more, (practically complete withering))	4 (weed kill ratio 70% or more, less than 90%)	4 (weed kill ratio 70% or more, less than 90%)	5 (weed kill ratio 90% or more, (practically complete withering))	5 (weed kill ratio 90% or more, (practically complete withering))	4 (weed kill ratio 70% or more, less than 90%)	4 (weed kill ratio 70% or more, less than 90%)	e: wheat, effect on crop grade (wheat): 4 (weed kill ratio 70% or more, less than 90%); f: beet, effect on crop grade (beet): 5 (weed kill ratio 90% or more, (practically complete withering))
CC(C)(C(=O)Nc1cc(Cl)ccn1)N1COCN(c2ccccc2)C1=O [A-2-06]	5 (weed kill ratio 90% or more, (practically complete withering))	5 (weed kill ratio 90% or more, (practically complete withering))	5 (weed kill ratio 90% or more, (practically complete withering))	4 (weed kill ratio 70% or more, less than 90%)	5 (weed kill ratio 90% or more, (practically complete withering))	5 (weed kill ratio 90% or more, (practically complete withering))	5 (weed kill ratio 90% or more, (practically complete withering))	5 (weed kill ratio 90% or more, (practically complete withering))	5 (weed kill ratio 90% or more, (practically complete withering))	5 (weed kill ratio 90% or more, (practically complete withering))	5 (weed kill ratio 90% or more, (practically complete withering))	5 (weed kill ratio 90% or more, (practically complete withering))	4 (weed kill ratio 70% or more, less than 90%)	5 (weed kill ratio 90% or more, (practically complete withering))	4 (weed kill ratio 70% or more, less than 90%)	4 (weed kill ratio 70% or more, less than 90%)	5 (weed kill ratio 90% or more, (practically complete withering))	5 (weed kill ratio 90% or more, (practically complete withering))	3 (weed kill ratio 40% or more, less than 70%)	3 (weed kill ratio 40% or more, less than 70%)	e: wheat, effect on crop grade (wheat): 1 (weed kill ratio 5% or more, less than 20%); f: beet, effect on crop grade (beet): 4 (weed kill ratio 70% or more, less than 90%)
CC(C)(C(=O)Nc1cccc(Br)n1)N1COCN(c2ccccc2)C1=O [A-2-09]	5 (weed kill ratio 90% or more, (practically complete withering))	5 (weed kill ratio 90% or more, (practically complete withering))	5 (weed kill ratio 90% or more, (practically complete withering))	0 (weed kill ratio 5% or less (practically no effect))	5 (weed kill ratio 90% or more, (practically complete withering))	5 (weed kill ratio 90% or more, (practically complete withering))	5 (weed kill ratio 90% or more, (practically complete withering))	5 (weed kill ratio 90% or more, (practically complete withering))	5 (weed kill ratio 90% or more, (practically complete withering))	5 (weed kill ratio 90% or more, (practically complete withering))	5 (weed kill ratio 90% or more, (practically complete withering))	5 (weed kill ratio 90% or more, (practically complete withering))	3 (weed kill ratio 40% or more, less than 70%)	5 (weed kill ratio 90% or more, (practically complete withering))	4 (weed kill ratio 70% or more, less than 90%)	4 (weed kill ratio 70% or more, less than 90%)	5 (weed kill ratio 90% or more, (practically complete withering))	5 (weed kill ratio 90% or more, (practically complete withering))	3 (weed kill ratio 40% or more, less than 70%)	3 (weed kill ratio 40% or more, less than 70%)	e: wheat, effect on crop grade (wheat): 1 (weed kill ratio 5% or more, less than 20%); f: beet, effect on crop grade (beet): 4 (weed kill ratio 70% or more, less than 90%)
